We go through twelve compounds from patent US20220267298A1 (priority 2019, published 2022).

Where “and” joins values, the source holds several entries; their conditions need not be identical. Equal values may be shown once.

What is called IC50 is the concentration that gives 50% inhibition.

The first assay concerns the target T1, GRK2 (Homo sapiens, UniProt P25098).
T1 sequence (P25098 1-689): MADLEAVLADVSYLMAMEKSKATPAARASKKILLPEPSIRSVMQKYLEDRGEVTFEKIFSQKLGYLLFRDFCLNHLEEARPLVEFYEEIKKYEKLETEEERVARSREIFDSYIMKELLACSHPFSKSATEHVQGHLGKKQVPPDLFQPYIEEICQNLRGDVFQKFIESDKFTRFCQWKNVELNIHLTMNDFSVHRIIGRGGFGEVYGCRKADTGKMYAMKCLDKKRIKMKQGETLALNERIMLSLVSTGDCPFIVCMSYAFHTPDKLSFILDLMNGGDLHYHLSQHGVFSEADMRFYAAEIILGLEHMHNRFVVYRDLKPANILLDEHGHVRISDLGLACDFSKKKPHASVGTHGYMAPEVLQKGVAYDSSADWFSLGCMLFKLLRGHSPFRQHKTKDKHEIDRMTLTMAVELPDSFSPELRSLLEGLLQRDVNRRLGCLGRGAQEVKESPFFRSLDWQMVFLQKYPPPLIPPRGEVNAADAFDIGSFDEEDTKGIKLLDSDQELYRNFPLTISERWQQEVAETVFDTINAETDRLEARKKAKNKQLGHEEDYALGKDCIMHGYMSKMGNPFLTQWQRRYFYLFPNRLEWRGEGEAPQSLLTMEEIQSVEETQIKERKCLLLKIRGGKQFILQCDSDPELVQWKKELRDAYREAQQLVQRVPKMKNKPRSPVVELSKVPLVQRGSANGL
Put plainly: biochemical.
Conditions: not given
As for the experimental part:
hGRK2 LANCE Ultra In Vitro Assay
G-protein coupled receptor kinases (GR Kinases) desensitize activated G-protein coupled receptors (GPCRs), by phosphorylation of cytoplasmic loops or carboxyl-terminal tails of GPCRs. GRK2 is one of the 6 different GR kinases and is implicated in heart failure and diabetes.
This assay is sensitive and requires as low as 10 nM enzyme, in a total volume of 10 μL. In addition, the ATP concentration can be varied over a broad range, without interfering with the assay or changing the assay condition. […] Testing inhibitors routinely at both high and low ATP concentrations also enables identification of potential non-ATP competitive inhibitors.
Paroxetine was used as the reference compound in this assay.
Test compounds were dissolved in DMSO at 1 mM and were 3-fold serial diluted. The compound DMSO solutions were then added (100 nL) into a plate well using an acoustic dispenser. To each well was then added 20 nM GRK2 (5 μL) in assay buffer (20 mM HEPES, pH 7.5, 10 mM MgCl2, 0.001% Tween-20®). The plate was sealed and centrifuged at 1000 rpm for 1 min.
The plate and wells containing a mixture of GRK2 and test compound were incubated at ambient temperature for 30 min (prior to initializing the enzymatic reaction).
Enzyme reactions were initiated by the addition of 4.9 μL Substrates/Eu-Ab mix to each well.
The plates were sealed and centrifuged at 1000 rpm for 1 min.
The enzyme reactions were quenched by addition of 10 μL of 12 mM EDTA in 1× LANCE detection solution to each well. The plates were then incubated at ambient temperature for 30 min.
The raw HTRF data were converted to % active as follows:
% active=(sample−NC)/(PC−NC)*100
`CCOc1cccc(Cn2cnc3ccc(-c4cn[nH]c4)c(F)c3c2=O)c1` [Compound 8, 3-(3-Ethoxybenzyl)-5-fluoro-6-(1H-pyrazol-4-yl)quinazolin-4(3H)-one] yielded an IC50 of 29 nM. Still for that read-out and setting: in the case of `COc1cccc(Cn2cnc3ccc(-c4cn[nH]c4)c(Cl)c3c2=O)c1` [Compound 7, 5-Chloro-3-[(3-methoxyphenyl)methyl]-6-(1H-pyrazol-4-yl)quinazolin-4-one] it was 16 nM; in that of `COC(=O)C(c1cccc(OC)c1)n1cnc2ccc(-c3cn[nH]c3)cc2c1=O` (stereo not shown) [Compound 11, Methyl 2-(3-methoxyphenyl)-2-[4-oxo-6-(1H-pyrazol-4-yl)quinazolin-3-yl]acetate], 1410 nM; in that of `COc1cccc(Cn2cnc3cc(OC)c(-c4cn[nH]c4)cc3c2=O)c1` [Compound 6, 7-Methoxy-3-[(3-methoxyphenyl)methyl]-6-(1H-pyrazol-4-yl)quinazolin-4-one], 16 nM. In turn, `COc1cccc(Cn2cnc3c(F)cc(-c4cn[nH]c4)cc3c2=O)c1` [Compound 9, 8-Fluoro-3-[(3-methoxyphenyl)methyl]-6-(1H-pyrazol-4-yl)quinazolin-4-one] showed an IC50 of 93 nM. Still for that read-out and setting: in the case of `COc1cccc(C(C(=O)O)n2cnc3ccc(-c4cn[nH]c4)cc3c2=O)c1` (stereo not shown) [Compound 12, (3-Methoxyphenyl)-2-[4-oxo-6-(1H-pyrazol-4-yl)quinazolin-3-yl]acetic acid] it was 2550 nM. Still for that read-out and setting: for `COc1cccc(Cn2cnc3ccc(-c4cn[nH]c4)c(O)c3c2=O)c1` [Compound 4, 5-Hydroxy-3-(3-methoxybenzyl)-6-(1H-pyrazol-4-yl)quinazolin-4(3H)-one] the value was 9 nM. The compound `COc1cccc(Cn2cnc3ccc(-c4cn[nH]c4)c(OC)c3c2=O)c1` [Compound 5, 5-Methoxy-3-[(3-methoxyphenyl)methyl]-6-(1H-pyrazol-4-yl)quinazolin-4-one] showed a half-inhibitory concentration (IC50) of 9 nM.

For the compound `COc1cccc(Cn2cnc3ccc(-c4cn[nH]c4)c(C#N)c3c2=O)c1` [Compound 1, 3-(3-Methoxybenzyl)-4-oxo-6-(1H-pyrazol-4-yl)-3,4-dihydroquinazoline-5-carbonitrile], half-maximal inhibition (IC50) required 5 nM. Still for that read-out and setting: for `COc1cccc(Cn2c(C)nc3ccc(-c4ccnc(N)n4)cc3c2=O)c1` [Compound 10, 6-(2-Aminopyrimidin-4-yl)-3-[(3-methoxyphenyl)methyl]-2-methyl-quinazolin-4-one] the value was 371 nM. Same read-out and setting: for `COc1cccc(Cn2cnc3ccc(-c4cn[nH]c4)c(F)c3c2=O)c1` [Compound 3, 5-Fluoro-3-(3-methoxybenzyl)-6-(1H-pyrazol-4-yl)quinazolin-4(3H)-one] the value was 7 nM.

Staying with this assay, now noted: 10 nM GRK2; ATP 30 or 600 μM, not stated which; read-out: GRK2 Lancer IC50.
For the compound `COc1cccc(Cn2cnc3ccc(-c4cn[nH]c4)cc3c2=O)c1` [Compound 2, 3-(3-Methoxybenzyl)-6-(1H-pyrazol-4-yl)quinazolin-4(3H)-one], the IC50 came to 6 nM.

The target in a further assay is T1, GRK2. Description: biochemical. The settings on record: GRK2 IC50 (μM), 10 nM GRK2; 10 uM ATP.
Procedure: Positive and negative control wells received an equal volume of DMSO. The final DMSO concentration in the assay is 1%.
The plate was placed in centrifuge equipped with a spin-bucket rotor and spun for 1 min at 1000 rpm.
GRK2 enzymatic reactions were initiated with the addition of 2 μL/well of 50 nM GRK2 in assay buffer. Plates were centrifuged for 1 min at 1000 rpm. For negative control wells, the order of reagent addition was reversed: 10 μL/well ADP detection mix (see below) was added first, followed by the addition of 2 μL/well of the GRK2 solution. Reaction mixtures were incubated at ambient temperature for 2 hours.
Following incubation, the reactions were quenched with 10 μL/well of the Transcreener ADP detection mix. […] The plates were then centrifuged for 1 min at 1000 rpm.
Fluorescence polarization values of the reaction mixtures were read on a Safire II plate reader after a 60 min incubation at ambient temperature. Excitation wavelength=590 nm; emission wavelength=650 nm.
The fluorescence polarization data were converted to % activity as follows:
% activity=(sample−NC)/(PC−NC)*100
where NC is the mean of negative control (ADP detection mix added prior to GRK2 addition), and PC is the mean of positive control (GRK2 reaction without inhibitor). IC50 values are determined from a 4-parameter fit, using the following equation:
Y=Bottom+(Top−Bottom)/(1+10^((Log IC50-X)*Hill slope)),
where X=log10 of the compound concentration.
For `COc1cccc(Cn2cnc3ccc(-c4cn[nH]c4)cc3c2=O)c1` [Compound 2, 3-(3-Methoxybenzyl)-6-(1H-pyrazol-4-yl)quinazolin-4(3H)-one], the half-inhibitory concentration (IC50) is ~0.01 µM and 0.011 µM.
